Test results published in patent US20250170212A1, “COMPOSITIONS AND METHODS OF TREATING AMYOTROPHIC LATERAL SCLEROSIS (ALS) AND RELATED DISORDERS” (BIOINCEPT, LLC, priority 2022, published 2025).

Assays:
IL-12 = experiment: Serum cytokine analysis, multiplex ELISA; assay type: in vivo, mouse; settings: serum collected weekly; compared to other groups
Description: (§1) Samples were collected every week, starting from day of graft transplantation (day 0), 100 μl of blood from mouse tail. Blood was stored 1 h in room temperature, and overnight in +4° C. Serum was gently aspirated, and centrifuged 10 min with 2000 RPM to separate blood morphotic bodies. Purified serum was stored in −80° C. until further analysis. Multiplex ELISA 23-cytokine kit (M60009RDPD) was obtained from Bio-Rad (Bio-Plex Pro Mouse Cytokine 23-plex Assay #M60009RDPD, Hercules, Bio-Rad, CA, USA, RRID: AB_2857368) and performed according to instructions. 50 μl of diluted in sample diluent, 1:4 serum samples and diluted at range 1:10-1:20. Measurement standards were used, diluted 9 times according to the protocol and added at template plate. Vortexed beads were added to the assay 96-well plate. Plate was again washed 3 times with wash buffer, then from template plate, 50 μl of samples, standards and blank were transferred to measurement plate with multichannel pipette. Plate was sealed with tape and incubated 30 min. After this time, plate was washed 3 times. 25 μl of detection antibody was added to the wells with multichannel pipette. Plate was sealed and incubated for 30 min. and next washed 3 times using wash buffer. […] Beads were resuspended with 125 μl of assay buffer and analysis was performed with Bio Plex 200 reader.
(§2) All quantifications were performed including the manual cell counts in a blinded manner. The NeuN and Ibal were counted as positive cells in the ROI (see above) as previously reported. The number of cells was determined by unbiased counting of positive cells. […] Differences between groups were analyzed using a repeated measure ANOVA model with a fixed effect for the group, of the time and a random intercept for the mouse. In a second, more explorative, approach for each group the time when the physical activity was first measured below a certain threshold was determined. […] The clinically relevant threshold was determined according to previous observations and defined as value 0.9 for the Wire Test. […] The statistical significance at p<0.05 was then determined.

IL-1α = experiment: Serum cytokine analysis, multiplex ELISA; assay type: in vivo, mouse; settings: serum collected weekly; compared to Injury and mGRPs groups
Description: as §1, §2

[1] = test system: Iba1+ cells (microglial activation); experiment: Immunohistochemistry of microglial cells in brainstem motor nuclei; assay type: in vivo, mouse; settings: facial and hypoglossal motor nuclei; compared to Injury
Description: At the end of experiment, mice were subjected to full body perfusion with 20% sucrose and 10% buffered formalin suitable for histology assays (Sigma Aldrich, St.Louis, MO, USA). Mice were decapitated and incubated in formalin for 24 h. Following the tissues (brain and spinal cord) were isolated, paraffin fixed for further analyses. After brain removal, the tissue was fixed in a formaldehyde solution (4%) for 2-4 hours at RT followed by 4° C. for a total time of 24-48 hours. Fixed tissues were embedded in paraffin and finally sectioned into 7 μm slices. […]
Assessment of neuronal and microglial positive cells were performed in the region of interest (ROI). […] The images were analyzed and reconstructed using Image J (US National Institutes of Health).
All quantifications were performed including the manual cell counts in a blinded manner. The NeuN and Ibal were counted as positive cells in the ROI (see above) as previously reported. The number of cells was determined by unbiased counting of positive cells. […] Differences between groups were analyzed using a repeated measure ANOVA model with a fixed effect for the group, of the time and a random intercept for the mouse. In a second, more explorative, approach for each group the time when the physical activity was first measured below a certain threshold was determined. […]

[2] = test system: experimental autoimmune encephalomyelitis; settings: murine EAE models; cited from earlier work

MVRIKPGSANKPSDD [sPIF]
peripheral IL-12 cytokine level (IL-12): plateaued at day 28
peripheral IL-1α cytokine peak (IL-1α): decreased IL-1α peak significantly
number of Iba1+ microglial cells (neuroinflammation) [1]: significant prevention of neuroinflammation
paralysis and myelination [2]: reverse and prevent paralysis and restore myelination
